Reference: publication PMC6058516, “Bispecific antibodies (anti-mPEG/anti-HER2) for active tumor targeting of docetaxel (DTX)-loaded mPEGylated nanocarriers to enhance the chemotherapeutic efficacy of HER2-overexpressing tumors” (Drug Delivery, 2018)
Values after ≈ are worked out from the molar mass of the structure shown.

Key:
MCF-7 = test: Cell viability MTT assay; format: cell-based; settings: Homo sapiens, MCF7
Method: (§1) Cell viabilities of the three BC cell lines of MCF-7, MCF-7/HER2, and SKBR-3 treated with Tynen®, the LsbMDDs, DNS-LsbMDDs, and HER2-LsbMDDs were evaluated by an MTT assay. Cells were seeded at a density of 5 × 10^4 cells per well in 24-well plates and incubated for 24 h at 37 °C with 5% CO2. Then, they were treated with different concentrations of the formulations for 4 h under the same conditions. After incubation for 48 h, 50 μL of MTT (6 mg/mL) was added to each well for 3 h. The medium was removed and 200 μL of DMSO was added to each well and gently shaken to dissolve any purple formazan crystal formations. The absorbance of each well was measured at 550 nm (BioTek, Winooski, VT).

MCF-7/HER2 = test: Cell viability MTT assay; format: cell-based; settings: Homo sapiens, MCF7
Method: as §1

IC50 (MCF-7): 0.763 µg/mL (≈ 0.944 µM)
IC50 (MCF-7/HER2): 0.052 µg/mL (≈ 0.0644 µM)
SMILES: CC(=O)O[C@@]12CO[C@@H]1C[C@H](O)[C@@]1(C)C(=O)[C@H](O)C3=C(C)[C@@H](OC(=O)[C@H](O)[C@@H](NC(=O)OC(C)(C)C)c4ccccc4)C[C@@](O)([C@@H](OC(=O)c4ccccc4)[C@H]21)C3(C)C [DTX, docetaxel]
